According to patent publication US8685992B2, “Histone deacetylase inhibitors based simultaneously on trisubstituted 1H-pyrroles and aromatic and heteroaromatic spacers” (Universidad del País Vasco, priority 2009, dated 2014):

Tests used:
[1] = biological target: Human HDAC1 (Homo sapiens (Human), UniProt Q13547); test: HDAC1 fluorogenic peptide deacetylation assay; type: biochemical; settings: human HDAC1, 50 μM substrate, 30° C., 2 h; read-out: IC50 (nM) of enzyme activity HDAC1
[2] = biological target: Human HDAC3/NcoR2 (Homo sapiens (Human), UniProt O15379); test: HDAC3 fluorogenic peptide deacetylation assay; type: biochemical; settings: human HDAC3/NcoR2, 50 μM substrate, 30° C., 2 h; read-out: IC50 (nM) of enzyme activity HDAC3
[3] = biological target: Human HDAC4 (Homo sapiens (Human), UniProt P56524); test: HDAC4 fluorogenic peptide deacetylation assay; type: biochemical; settings: human HDAC4, 50 μM substrate, 30° C., 2 h; read-out: IC50 (nM) of enzyme activity HDAC4
[4] = biological target: Human HDAC8 (Homo sapiens (Human), UniProt Q9BY41); test: HDAC8 fluorogenic peptide deacetylation assay; type: biochemical; settings: human HDAC8, 50 μM substrate, 30° C., 2 h; read-out: IC50 (nM) of enzyme activity HDAC8
[5] = test system: BT474; test: Cancer cell growth inhibition, BT474; type: cell-based; settings: Homo sapiens, BT-474; BT474, Breast Cancer, 72 h treatment
Procedure: (§1) Cell culture-based assays were used to evaluate the ability of compounds of the invention to inhibit cancer cell growth inhibition.
(§2) Cells were obtained from the American Type Culture Collection (ATCC). Cells were cultured at 37° C. with 5% CO2 in the appropriate growth medium (see table below), and harvested respectively during the logarithmic growth period and counted with hemocytometer. The cell viability was over 98% by trypan blue exclusion. Cell concentrations were adjusted between 5×10^4 and 2×10^5 cells/ml with respective medium.
(§3) Stock solutions of test compounds and positive drugs Doxorubicin (Zhejiang, Haizheng, China), Paclitaxel (Beijing, Xiehe, China), Vincristin (Shenzhen Wanle, China), 5-FU (Tianjin jinyaoanjisuan, China), Irinotecan (Jiangsu Hengrui, China) and Cisplatin Nanjing zhiyao, China) were prepared in dimethyl sulphoxide (DMSO) or PBS at 20 mM.
(§4) All treatments were performed in triplicate. 10 μl drug solution was added to each well and incubated for 72 hours. At the end of the incubation, 20 μl of the freshly prepared MTS/PMS mixture solution was added to each well and incubated for 4 hours at 37° C. in a humidified, 5% CO2 atmosphere. Absorbance was read at 490 nm using SpectraMAX Plus microplate spectrophotometer. […] In order to calculate IC50, a dose-responsive curve was fitted using nonlinear regression model with a sigmoidal dose response.

[6] = test system: MCF-7; test: Cancer cell growth inhibition, MCF-7; type: cell-based, human; settings: Homo sapiens, MCF7; MCF-7, Breast Cancer, 72 h treatment
Procedure: as §1, §2, §3, §4

[7] = test system: MDA-MB-231; test: Cancer cell growth inhibition, MDA-MB-231; type: cell-based, human; settings: Homo sapiens; MDA-MB-231, Breast Cancer, 72 h treatment
Procedure: as §1, §2, §3, §4

[8] = test system: LNCaP; test: Cancer cell growth inhibition, LNCaP; type: cell-based, human; settings: Homo sapiens, Prostate Cancer, 72 h treatment
Procedure: as §1, §2, §3, §4

[9] = test system: Colo205; test: Cancer cell growth inhibition, Colo205; type: cell-based; settings: Homo sapiens, COLO 205; Colo205, Colorectal Cancer, 72 h treatment
Procedure: as §1, §2, §3, §4

[10] = test system: DLD-1; test: Cancer cell growth inhibition, DLD-1; type: cell-based, human; settings: Homo sapiens; DLD-1, Colorectal Cancer, 72 h treatment
Procedure: as §1, §2, §3, §4

[11] = test system: HCT-116; test: Cancer cell growth inhibition, HCT-116; type: cell-based, human; settings: Homo sapiens; HCT-116, Colorectal Cancer, 72 h treatment
Procedure: as §1, §2, §3, §4

[12] = test system: HT-29; test: Cancer cell growth inhibition, HT-29; type: cell-based, human; settings: Homo sapiens; HT-29, Colorectal Cancer, 72 h treatment
Procedure: as §1, §2, §3, §4

[13] = test system: LoVo; test: Cancer cell growth inhibition, LoVo; type: cell-based, human; settings: Homo sapiens, Colorectal Cancer, 72 h treatment
Procedure: as §1, §2, §3, §4

[14] = test system: NCI-H460; test: Cancer cell growth inhibition, NCI-H460; type: cell-based, human; settings: Homo sapiens; NCI-H460, Lung Cancer, 72 h treatment
Procedure: as §1, §2, §3, §4

[15] = test system: SK-MES-1; test: Cancer cell growth inhibition, SK-MES-1; type: cell-based, human; settings: Homo sapiens; SK-MES-1, Lung Cancer, 72 h treatment
Procedure: as §1, §2, §3, §4

[16] = test system: U87MG; test: Cancer cell growth inhibition, U87MG; type: cell-based, human; settings: Homo sapiens, U-87 MG, Glioblastoma, 72 h treatment
Procedure: as §1, §2, §3, §4

[17] = test system: HT-1080; test: Cancer cell growth inhibition, HT-1080; type: cell-based; settings: Homo sapiens; HT-1080, Fibrosarcoma, 72 h treatment
Procedure: as §1, §2, §3, §4

[18] = test system: MIAPACA-2; test: Cancer cell growth inhibition, MIAPACA-2; type: cell-based, human; settings: Homo sapiens, MIA PaCa-2; MIAPACA-2, Pancreatic Cancer, 72 h treatment
Procedure: as §1, §2, §3, §4

[19] = test system: Bx-PC-3; test: Cancer cell growth inhibition, Bx-PC-3; type: cell-based, human; settings: Homo sapiens, BXPC-3; Bx-PC-3, Pancreatic Cancer, 72 h treatment
Procedure: as §1, §2, §3, §4

[20] = test system: 786-O; test: Cancer cell growth inhibition, 786-O; type: cell-based, human; settings: Homo sapiens, 786-0, Kindney Cancer, 72 h treatment
Procedure: as §1, §2, §3, §4

[21] = test system: Hep3B; test: Cancer cell growth inhibition, Hep3B; type: cell-based, human; settings: Homo sapiens, Liver Cancer, 72 h treatment
Procedure: as §1, §2, §3, §4

[22] = test system: SK-HEP-1; test: Cancer cell growth inhibition, SK-HEP-1; type: cell-based; settings: Homo sapiens, SK-HEP1; SK-HEP-1, Liver Cancer, 72 h treatment
Procedure: as §1, §2, §3, §4

[23] = test system: 143b; test: Cancer cell growth inhibition, 143b; type: cell-based; settings: Homo sapiens, Osteosarcoma, 72 h treatment
Procedure: as §1, §2, §3, §4

[24] = test system: SK-MEL-5; test: Cancer cell growth inhibition, SK-MEL-5; type: cell-based, human; settings: Homo sapiens; SK-MEL-5, Melanoma, 72 h treatment
Procedure: as §1, §2, §3, §4

[25] = test system: SK-OV-3; test: Cancer cell growth inhibition, SK-OV-3; type: cell-based, human; settings: Homo sapiens; SK-OV-3, Ovarian Cancer, 72 h treatment
Procedure: as §1, §2, §3, §4

[26] = test system: OVCAR3; test: Cancer cell growth inhibition, OVCAR3; type: cell-based, human; settings: Homo sapiens, OVCAR-3; OVCAR3, Ovarian Cancer, 72 h treatment
Procedure: as §1, §2, §3, §4

[27] = test system: K562; test: Cancer cell growth inhibition, K562; type: cell-based, human; settings: Homo sapiens; K562, CML, 72 h treatment
Procedure: as §1
as §2, with “The cell viability was over 98% by trypan blue exclusion.” left out
as §3, §4

[28] = test system: KB; test: Cancer cell growth inhibition, KB; type: cell-based, human; settings: Homo sapiens, Oral Cancer, 72 h treatment
Procedure: as §1, §2, §3, §4

Chain of Human HDAC3/NcoR2 (O15379 whole entry): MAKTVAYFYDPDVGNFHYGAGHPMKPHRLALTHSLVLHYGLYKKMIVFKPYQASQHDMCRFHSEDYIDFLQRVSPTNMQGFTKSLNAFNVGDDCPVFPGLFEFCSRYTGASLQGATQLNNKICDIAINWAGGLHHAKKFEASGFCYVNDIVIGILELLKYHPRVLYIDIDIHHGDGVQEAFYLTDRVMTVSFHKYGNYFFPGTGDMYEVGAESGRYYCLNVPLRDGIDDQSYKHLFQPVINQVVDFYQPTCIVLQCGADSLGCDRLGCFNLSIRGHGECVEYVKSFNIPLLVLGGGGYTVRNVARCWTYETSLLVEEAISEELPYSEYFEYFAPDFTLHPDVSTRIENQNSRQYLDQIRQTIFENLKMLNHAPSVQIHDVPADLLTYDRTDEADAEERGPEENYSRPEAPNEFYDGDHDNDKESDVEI
Chain of Human HDAC3/NcoR2 (Q9Y618 395-489 partner): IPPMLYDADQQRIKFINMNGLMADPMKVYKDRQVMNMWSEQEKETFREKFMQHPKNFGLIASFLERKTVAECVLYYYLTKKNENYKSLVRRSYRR
Chain of Human HDAC8 (Q9BY41 whole entry): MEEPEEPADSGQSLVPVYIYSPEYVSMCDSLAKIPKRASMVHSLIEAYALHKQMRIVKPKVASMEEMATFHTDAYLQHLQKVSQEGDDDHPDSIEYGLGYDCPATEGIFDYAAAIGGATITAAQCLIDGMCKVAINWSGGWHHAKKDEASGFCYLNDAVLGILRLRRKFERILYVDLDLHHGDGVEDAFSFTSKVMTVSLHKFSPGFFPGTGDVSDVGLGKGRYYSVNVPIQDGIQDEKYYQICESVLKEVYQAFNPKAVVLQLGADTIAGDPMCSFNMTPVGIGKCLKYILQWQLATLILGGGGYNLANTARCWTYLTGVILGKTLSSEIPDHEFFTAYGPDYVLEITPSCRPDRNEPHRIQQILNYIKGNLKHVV
Chain of Human HDAC1 (Q13547 whole entry): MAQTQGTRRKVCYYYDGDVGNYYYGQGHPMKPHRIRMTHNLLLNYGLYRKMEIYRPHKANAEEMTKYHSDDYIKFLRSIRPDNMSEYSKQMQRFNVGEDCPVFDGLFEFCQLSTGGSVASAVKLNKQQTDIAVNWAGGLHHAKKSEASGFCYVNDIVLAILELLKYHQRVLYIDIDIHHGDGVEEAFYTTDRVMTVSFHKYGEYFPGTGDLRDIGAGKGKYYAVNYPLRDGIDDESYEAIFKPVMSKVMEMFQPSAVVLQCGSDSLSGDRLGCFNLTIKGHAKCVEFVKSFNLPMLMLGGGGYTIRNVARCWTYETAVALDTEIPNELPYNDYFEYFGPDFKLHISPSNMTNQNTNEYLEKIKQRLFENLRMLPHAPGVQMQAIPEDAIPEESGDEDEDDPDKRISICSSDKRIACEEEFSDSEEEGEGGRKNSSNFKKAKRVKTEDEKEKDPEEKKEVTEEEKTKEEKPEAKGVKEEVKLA
Chain of Human HDAC4 (P56524 627-1084 limits assumed): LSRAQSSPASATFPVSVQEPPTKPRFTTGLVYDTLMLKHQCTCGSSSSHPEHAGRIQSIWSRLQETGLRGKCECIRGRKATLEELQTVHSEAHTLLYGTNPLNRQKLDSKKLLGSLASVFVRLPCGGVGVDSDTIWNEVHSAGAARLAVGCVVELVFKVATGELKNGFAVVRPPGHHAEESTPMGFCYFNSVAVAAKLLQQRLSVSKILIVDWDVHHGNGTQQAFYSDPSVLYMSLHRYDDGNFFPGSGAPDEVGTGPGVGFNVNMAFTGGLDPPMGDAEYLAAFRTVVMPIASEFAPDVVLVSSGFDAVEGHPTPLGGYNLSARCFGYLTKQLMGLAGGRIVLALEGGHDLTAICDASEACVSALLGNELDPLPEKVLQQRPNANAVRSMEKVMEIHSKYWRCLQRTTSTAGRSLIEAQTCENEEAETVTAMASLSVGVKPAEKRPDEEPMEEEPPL

SMILES | IC50 [1] | IC50 [2] | IC50 [3] | IC50 [4] | IC50 [5] | IC50 [6] | IC50 [7] | IC50 [8] | IC50 [9] | IC50 [10] | IC50 [11] | IC50 [12] | IC50 [13] | IC50 [14] | IC50 [15] | IC50 [16] | IC50 [17] | IC50 [18] | IC50 [19] | IC50 [20] | further results
COc1ccc(-c2cc(-c3ccsc3)c(C(=O)NCc3ccc(C(=O)NO)cc3)[nH]2)cc1 [Example 28, N-{4-[(hydroxyamino)carbonyl]benzyl}-5-(4-methoxyphenyl)-3-(3-thienyl)-1H-pyrrole-2-carboxamide] | 184 nM | 273 nM | 2430 nM | 174 nM | 12.9 µM | 2.77 µM | 73.8 µM | 3.07 µM | 3.1 µM | 3.22 µM | 1.46 µM | 25.9 µM | 3.85 µM | 12.1 µM | 1.78 µM | 8.96 µM | 1.09 µM | 7.52 µM | 8.28 µM | 10 µM | IC50 [21]: 4.27 µM; IC50 [22]: 9.93 µM; IC50 [23]: 11.1 µM; IC50 [24]: 3.79 µM; IC50 [25]: 8.43 µM; IC50 [26]: 4.76 µM; IC50 [27]: 1.37 µM; IC50 [28]: 3.43 µM
O=C(NO)c1ccc(CNC(=O)c2[nH]c(-c3ccc(O)cc3)cc2-c2ccoc2)cc1 [Example 15, 3-(3-furyl)-N-{4-[(hydroxyamino)carbonyl]benzyl}-5-(4-hydroxyphenyl)-1H-pyrrole-2-carboxamide] | 49.9 nM | 46.1 nM | 338 nM | 74.8 nM | 0.442 µM | 2.09 µM | 1.83 µM | 1.72 µM | 0.365 µM | 4.48 µM | 0.082 µM | 2.29 µM | 0.15 µM | 6.29 µM | 3.51 µM | 6.56 µM | 0.594 µM | 0.27 µM | 2.25 µM | 2.29 µM | IC50 [21]: 0.859 µM; IC50 [22]: 0.45 µM; IC50 [23]: 1.93 µM; IC50 [24]: 0.292 µM; IC50 [25]: 0.651 µM; IC50 [26]: 8.05 µM; IC50 [27]: 0.739 µM; IC50 [28]: 0.184 µM
